The numbers were not newly measured in patent US6555228B2, “Bio-supportive medium, and methods of making and using the same” (priority 2000, dated 2003), which cites them from elsewhere.

For one series, the system named is Ophyotrocha Labronica. The following applies: 0.1 mg L^−1 of copper.
The next series relates to Artemia salina. The following applies: 1.0 mg L^−1 of copper.
For series [1], the system named is Barnacles and zebra mussels.
A further series relates to Torla (=Candida) utilis. The following applies: pH 7, simple form.
For series [2], the system named is other classes of organisms.
The subject of the next series is several dinoflagelates. The following applies: until organic chelation occurs.
Series [3] deals with Thalassiosira weissflogii. The following applies: very low concentrations.

Each structure is given as a SMILES string.

As for `[Cu+2]` [copper], the “growth rate of Ophyotrocha Labronica” value in the series on Ophyotrocha Labronica was “decreased significantly”. Moreover, the “generally available copper with no measurable negative effect” value in the series with most habitats is recorded as “below 0.62 mg/l”. Moreover, the “growth rate of Artemia salina” value in the series with Artemia salina was “no change”. Also, the tolerance of copper entry in series [1] is recorded as “can not tolerate any copper”. Moreover, in the series on Torla (=Candida) utilis, the “amount of copper toxic to Torla (=Candida) utilis” value is reported as 20 mg. For the same molecule, the lethal dose in the series on some species was 10 ppm. Moreover, the “concentration at which biolimiting occurs” value in series [2] is recorded as at least 40 ppm. For the same molecule, in the series with several dinoflagelates, the “effect of copper on dinoflagelates” value is “inhibit”.
Take `[Zn+2]` [zinc]: the “effect of zinc ion activity on growth” value in series [3] is on record as “growth limiting effect”.
